The subject of data set [1] is PBMC. Nature of the data set: Antiinflammatory activity in human PBMC assessed as inhibition of LPS-induced TNFalpha release incubated for 15 mins prior to LPS-challenge measured after 24 hrs by HTRF assay. Type of data set: functional, cell-based. On the technique in general: Time-resolved FRET reads energy transfer from a long-lived donor to a nearby acceptor.
In data set [2] the test system is PBMC. Nature of the data set: Antiinflammatory activity in human PBMC assessed as inhibition of LPS-induced IL-1beta release incubated for 15 mins prior to LPS-challenge measured after 24 hrs by HTRF assay. Type of data set: functional, cell-based.
In data set [3] the test system is PBMC. Nature of the data set: Antiinflammatory activity in human PBMC assessed as inhibition of LPS-induced IL-6 release incubated for 15 mins prior to LPS-challenge measured after 24 hrs by HTRF assay. Type of data set: functional, cell-based.
The subject of data set [4] is Mus musculus. Nature of the data set: Antiinflammatory activity in collagen-induced arthritis mouse model at 3 mg/kg, po qd after 20 days. The arrangement: dose 3 mg/kg. It is filed as functional, organism-based.
In data set [5] the test system is Mus musculus. Nature of the data set: Toxicity in mouse assessed as change in body weight at 3 mg/kg, po qd after 20 days relative to untreated control. Type of data set: organism-based. The arrangement: dose 3 mg/kg, route oral. As to conditions: in vivo, 480 h.

The record followed here is ChEMBL document CHEMBL2440005, “Discovery and structure-activity relationships of 6-(benzoylamino)benzoxaboroles as orally active anti-inflammatory agents” (Bioorg Med Chem Lett, 2013).

Each structure is given as a SMILES string. Active and inactive are the calls of the source. No cut-off for these calls is given here.

In the case of `O=C(Nc1ccc2c(c1)B(O)OC2)c1cc(F)ccc1C(F)(F)F`, the IC50 (commonly the concentration that inhibits the measured activity by half) with PBMC [1] is 28 µM; in the data set with PBMC [2] it was 11 µM; in the data set with PBMC [3], 8.2 µM.

As to `O=C(Nc1ccc2c(c1)B(O)OC2)c1ccc(F)cc1C(F)(F)F`, the IC50 in the data set on PBMC [1] stood at 13 µM; with PBMC [2] it was 3.2 µM; with PBMC [3] it was 5.6 µM.

As for `O=S(=O)(Nc1ccc2c(c1)B(O)OC2)c1ccccc1C(F)(F)F`, the IC50 in the data set with PBMC [1], in the data set with PBMC [2] and with PBMC [3] was more than 10 µM in each case.

`O=C(Nc1ccc2c(c1)B(O)OC2)c1ccc(C(F)(F)F)cc1F`: the IC50 in the data set with PBMC [1], in the data set on PBMC [2] and in the data set with PBMC [3] was more than 100 µM in each case.

In the case of `O=C(Nc1ccc2c(c1)B(O)OC2)c1c(F)cccc1C(F)(F)F`, the values for the IC50 in the data set on PBMC [1], in the data set on PBMC [2] and in the data set with PBMC [3] were 1.2 µM, 0.18 µM and 0.37 µM, respectively.

For the molecule `O=C(Nc1ccc2c(c1)B(O)OC2)c1c(F)cccc1Cl`, the figures for the IC50 in the data set on PBMC [1], in the data set with PBMC [2] and in the data set on PBMC [3] were 15 µM, 3.1 µM and 4.9 µM, respectively.

Regarding `COc1ccccc1C(=O)Nc1ccc2c(c1)B(O)OC2`, the IC50 in the data set with PBMC [1] was 36 µM; in the data set with PBMC [2], more than 100 µM; in the data set on PBMC [3], more than 100 µM.

On to `O=C(Nc1ccc2c(c1)B(O)OC2)c1cc(C(F)(F)F)ccc1F`, for which the IC50 with PBMC [1], in the data set with PBMC [2] and with PBMC [3] was more than 100 µM throughout.

For `O=C(Nc1ccc2c(c1)B(O)OC2)c1ccc(C(F)(F)F)cc1C(F)(F)F`, the IC50 with PBMC [1] came to 10 µM; with PBMC [2], 5.3 µM; in the data set with PBMC [3], 8.3 µM.

Consider `O=C(Nc1ccc2c(c1)B(O)OC2)c1ccccc1Cl`, for which the IC50 in the data set with PBMC [1], in the data set on PBMC [2] and in the data set with PBMC [3] was more than 100 µM in each case.

`O=C(Nc1ccc2c(c1)B(O)OC2)c1cccc(Cl)c1F`: the IC50 in the data set on PBMC [1], with PBMC [2] and in the data set with PBMC [3] was more than 100 µM throughout.

In the case of `O=C(Nc1ccc2c(c1)B(O)OC2)c1cc(C(F)(F)F)ccc1C(F)(F)F`, the IC50 with PBMC [1] stood at 6.3 µM; in the data set with PBMC [2], 2 µM; in the data set with PBMC [3] it was 3 µM.

Turning to `Cc1ccccc1C(=O)Nc1ccc2c(c1)B(O)OC2`, the IC50 in the data set with PBMC [1], in the data set with PBMC [2] and in the data set on PBMC [3] was more than 100 µM each time.

As for `O=C(Nc1ccc2c(c1)B(O)OC2)c1ccccc1-c1ccccc1`, the IC50 in the data set with PBMC [1], in the data set on PBMC [2] and with PBMC [3] was more than 100 µM throughout.

In the case of `O=C(Nc1ccc2c(c1)B(O)OC2)c1ccc(C(F)(F)F)cc1`, the half-maximal inhibitory concentration (IC50) with PBMC [1], with PBMC [2] and in the data set with PBMC [3] was more than 100 µM each time.

On to `O=C(Nc1ccc2c(c1)B(O)OC2)Nc1ccccc1C(F)(F)F`, for which the IC50 with PBMC [1], in the data set with PBMC [2] and in the data set on PBMC [3] was more than 10 µM throughout.

In the case of `O=C(Nc1ccc2c(c1)B(O)OC2)c1ccccc1C(F)(F)F`, the IC50 was found to be 7.2 µM in the data set on PBMC [1], 2.1 µM with PBMC [2] and 4.4 µM with PBMC [3].

As for `O=C(Nc1ccc2c(c1)B(O)OC2)c1cccc(C(F)(F)F)c1F`, the IC50 with PBMC [1] was 99 µM; in the data set on PBMC [2], more than 100 µM; in the data set with PBMC [3] it was more than 100 µM.

For the molecule `C[C@]12C=CC(=O)C=C1CC[C@@H]1[C@@H]2[C@@H](O)C[C@@]2(C)[C@H]1CC[C@]2(O)C(=O)CO` [PREDNISOLONE], the inhibition entry with Mus musculus [4] was “Active”. Further, the Activity result in the data set with Mus musculus [5] was “Non-toxic”.

Turning to `O=C(Nc1ccc2c(c1)B(O)OC2)c1ccccc1F`, the IC50 in the data set on PBMC [1] was more than 100 µM; in the data set with PBMC [2], more than 10 µM; in the data set on PBMC [3], more than 10 µM.

For the molecule `O=C(Nc1ccc2c(c1)B(O)OC2)c1ccccc1`, the IC50 in the data set on PBMC [1], in the data set with PBMC [2] and with PBMC [3] was more than 100 µM throughout.

With `O=C(Nc1ccc2c(c1)B(O)OC2)c1cccc(C(F)(F)F)c1`, the IC50 in the data set with PBMC [1], in the data set with PBMC [2] and with PBMC [3] was more than 10 µM throughout.

Take `OB1OCc2ccc(NCc3ccccc3C(F)(F)F)cc21`: the IC50 with PBMC [1], with PBMC [2] and in the data set on PBMC [3] was more than 10 µM throughout.

On to `O=C(Nc1ccc2c(c1)B(O)OC2)c1ccccc1OC(F)(F)F`, for which the IC50 with PBMC [1], with PBMC [2] and with PBMC [3] was more than 100 µM throughout.
